In publication PMC8705783, “The Effect of Conjugation with Octaarginine, a Cell-Penetrating Peptide on Antifungal Activity of Imidazoacridinone Derivative” (International Journal of Molecular Sciences, 2021):
In brackets after ≈: the same amount, converted by molar mass.

Experiments:
[1] = tested on: Candida parapsilosis ATCC 22019; test: microbe, parasite or virus in culture; settings: Lodderomyces parapsilosis, ATCC22019, 24 h, pH 7
human erythrocytes = assay type: cell-based; settings: 30 min
Experimental: Red blood cell concentrates were kindly provided by the Regional Centre for Blood Donation and Blood Treatment in Gdansk. The haemolytic activity determination was carried out by the serial dilution method according to the procedure described earlier. Human erythrocytes were suspended in a solution of saline to obtain a cell density of suspension 2 × l0^7 per mL. Suitable amounts of solutions of compounds diluted in DMSO were added to the cell suspension in tubes, incubated at 37 °C for 30 min, and then centrifuged (1700× g, 5 min, 4 °C). The concentration of haemoglobin in the supernatant after centrifugation of the erythrocytes suspension was determined by measuring the absorbance at wavelength λ = 540 nm (A540 ^sample). Control experiments with the same amount of DMSO were also performed (A540 ^DMSO). The maximum level of haemolysis was obtained after incubation of the cell suspension in the presence of 0.1% Triton X-100 (positive control, A540 ^0.1%Triton X−100). […] The EH50 values for each compound were calculated with GraphPad Prism 8 software. The EH50 is the interpolated concentration of compound, for which the A540 value is exactly 50% of the A540 value measured for the positive control sample. EH (%) was calculated as follows:EH (%) = ((A540 ^sample − A540 ^DMSO)/(A540 ^0.1%Triton X−100 − A540 ^0.9%NaCl)) × 100

Candida krusei ATCC 6258 = test: microbe, parasite or virus in culture; settings: Pichia kudriavzevii, ATCC6258, 24 h, pH 7
C. albicans ATCC 10231 [2] = assay type: cell-based, Candida albicans
Experimental: Killing kinetics analysis was performed as described previously. […] After an appropriate time of incubation, 10 μL was withdrawn and spread on YPG agar plates. The number of colony-forming units (CFUs) was determined after overnight incubation of the plates at 37 °C. The killing kinetics analysis was performed with the GraphPad Prism 8 software (GraphPad Software Inc., San Diego, CA, USA).

[3] = tested on: Saccharomyces cerevisiae ATCC 9763; test: microbe, parasite or virus in culture; settings: ATCC9763, 24 h, pH 7
[4] = tested on: Candida glabrata ATCC 90030; test: microbe, parasite or virus in culture; settings: Nakaseomyces glabratus, ATCC90030, 24 h, pH 7
C. albicans ATCC 10231 [5] = test: microbe, parasite or virus in culture; assay type: cell-based; settings: Candida albicans, ATCC10231; minimal fungicidal concentration that kills 99% of cells; read-out: MFC
Experimental: (§1) To establish the possible mode of action for Compound 1-R8, we have analysed the killing activity and determined minimal fungicidal concentrations (MFCs) (Table 4). Additionally, killing kinetics analysis against pathogenic C. albicans ATCC 10231 was performed (Figure 2).
(§2) Minimum fungicidal concentrations (MFCs) were determined as described previously by spot assay. The MFC was determined as the lowest concentration of the test compound in which no recovery of microorganisms was observed.

C. glabrata DSM 11226 = test: microbe, parasite or virus in culture; assay type: cell-based; settings: Nakaseomyces glabratus, DSM11226; minimal fungicidal concentration that kills 99% of cells; read-out: MFC
Experimental: as §1, §2

C. parapsilosis DSM 5784 = test: microbe, parasite or virus in culture; assay type: cell-based; settings: Lodderomyces parapsilosis, DSM5784; minimal fungicidal concentration that kills 99% of cells; read-out: MFC
Experimental: as §1, §2

C. krusei DSM 6128 = test: microbe, parasite or virus in culture; assay type: cell-based; settings: Pichia kudriavzevii, DSM6128; minimal fungicidal concentration that kills 99% of cells; read-out: MFC
Experimental: as §1, §2

[6] = tested on: Candida albicans ATCC 10231; test: microbe, parasite or virus in culture; settings: ATCC10231, 24 h, pH 7
S. cerevisiae ATCC 9763 = test: Minimal fungicidal concentration, spot assay; assay type: cell-based; settings: Saccharomyces cerevisiae, ATCC9763; minimal fungicidal concentration that kills 99% of cells; read-out: MFC
Experimental: as §1, §2

In the case of C[C@@H]1[C@H](O)[C@@H](C)/C=C/C=C/C=C/C=C/C=C/C=C/C=C/[C@H](O[C@@H]2O[C@H](C)[C@@H](O)[C@H](N)[C@@H]2O)C[C@@H]2O[C@](O)(C[C@@H](O)C[C@@H](O)[C@H](O)CC[C@@H](O)C[C@@H](O)CC(=O)O[C@H]1C)C[C@H](O)[C@H]2C(=O)O [Amphotericin B], the MIC90 [1] is reported as 1 µg/mL (≈ 1.08 µM), the EH50 (human erythrocytes) is reported as 3.46 ± 0.15 µg/mL and the MIC90 (Candida krusei ATCC 6258) is reported as 1 µg/mL (≈ 1.08 µM). For the same compound, the “mortality of the microbial population” value (C. albicans ATCC 10231 [2]) was “about 60%”, the MIC90 [3] was 0.5 µg/mL (≈ 0.541 µM) and the MIC90 [4] was 1 µg/mL (≈ 1.08 µM). It also gave an MFC (C. albicans ATCC 10231 [5]) of 2 µg/mL (≈ 2.16 µM), an MFC (C. glabrata DSM 11226) of 2 µg/mL (≈ 2.16 µM) and an MFC (C. parapsilosis DSM 5784) of 2 µg/mL (≈ 2.16 µM). It also gave an MFC (C. krusei DSM 6128) of 2 µg/mL (≈ 2.16 µM), an MIC90 [6] of 0.5 µg/mL (≈ 0.541 µM) and an MFC (S. cerevisiae ATCC 9763) of 2 µg/mL (≈ 2.16 µM).
